Measurements reported in patent publication US20210275518A1, “METHODS OF USING REBASTINIB IN THE TREATMENT OF DISORDERS” (Deciphera Pharmaceuticals, LLC, priority 2020, published 2021).

Key:
[1] = test system: triple negative breast cancer; experiment: Phase 1b/2 rebastinib + paclitaxel, Part 2 Cohort 1 (RECIST v1.1); assay type: in vivo, human
Excerpt: (§1) Upon determination of the RP2D, Part 2 is initiated to dose up to 165 evaluable patients using the RP2D across five indication-specific cohorts. A Simon's two-stage design is applied to Part 2 to further evaluate the safety, tolerability, and preliminary efficacy of rebastinib in combination with paclitaxel in triple-negative breast (Cohort 1), inflammatory breast (Cohort 2), ovarian (Cohort 3), endometrial adenocarcinoma (Cohort 4), and gynecologic carcinosarcoma (Cohort 5) cancers. Each cohort initially enrolls up to 18 evaluable patients in the first stage. Patients must receive at least 1 dose of the combination and have 1 post-baseline assessment (including assessment of clinical progression) or be discontinued prior to the postbaseline disease assessment due to an AE at least possibly related to rebastinib, to be considered evaluable. Tumor response is assessed according to Response Evaluation Criteria in Solid Tumors (RECIST) Version 1.1. The decision to enroll patients beyond the first stage is based on response assessments obtained after the first post-dose response assessment of the last patient enrolled in the first stage of a cohort. […] If ≤4 responses are seen in a cohort, the cohort will be terminated. If >4 responses are seen prior to the last evaluable patient in the first stage, expanding the cohort may be triggered earlier. Enrollment in each cohort will pause between the first and second stage of the Simon two-stage for evaluation of response. Patients will receive study treatment until they develop progressive disease, experience unacceptable toxicity, or withdraw consent.

[2] = test system: breast cancer, ovarian cancer, and mesothelioma; experiment: Phase 1b/2 study of rebastinib in combination with carboplatin; assay type: in vivo, human
Protocol: (§2) This is a Phase 1b/2 study where patients with mesothelioma are administered rebastinib in combination with carboplatin. The study follows a Simon 2-stage design at the MTD and R2PD. Safety and tolerability, PK and PD, and preliminary efficacy data was used to determine the RP2D. Upon determination of the RP2D or MTD, the Simon 2-stage design is initiated to dose evaluable patients using the RP2D or MTD across three indication-specific cohorts (breast cancer, ovarian cancer, and mesothelioma).
as §1, with “Each” for “Upon determination of the RP2D, Part 2 is initiated to dose up to 165 evaluable patients using the RP2D across five indication-specific cohorts. A Simon's two-stage design is applied to Part 2 to further evaluate the safety, tolerability, and preliminary efficacy of rebastinib in combination with paclitaxel in triple-negative breast (Cohort 1), inflammatory breast (Cohort 2), ovarian (Cohort 3), endometrial adenocarcinoma (Cohort 4), and gynecologic carcinosarcoma (Cohort 5) cancers. Each”, “progression),” for “progression)”
At a second time point, 22 patients were enrolled in the study (3 cohorts: 3 patients at rebastinib 50 mg BID+carboplatin AUC5, 14 patients at rebastinib 100 mg BID+carboplatin AUC5, and 5 pts at rebastinib 100 mg BID+carboplatin AUC6). The median age was 61 yrs. Most frequent diagnoses were breast cancer (n=5); neuroendocrine carcinoma (n=3); pancreatic adenocarcinoma, NSCLC, and cholangiocarcinoma (n=2 each). The median number of prior anti-cancer therapies was 4 (1, 12). Median duration of treatment was 8.4 weeks (0.9, 22.6).

[3] = test system: advanced or metastatic solid tumors; experiment: Phase 1b/2 study of rebastinib in combination with paclitaxel (Part 1; overall safety); assay type: in vivo, human
Excerpt: (§3) This is an open-label Phase 1b/2 multicenter study in patients with advanced or metastatic solid tumors where paclitaxel may be considered appropriate treatment. Rebastinib will be administered in combination with paclitaxel in repeated 28-day cycles to primarily assess the safety, tolerability and preliminary efficacy of the combination. Adverse events (AEs) will be assessed, and laboratory values, vital sign measurements, electrocardiograms (ECGs), ophthalmologic examinations, physical examinations and Eastern Cooperative Oncology Group (ECOG) Performance Status (PS) will be obtained to evaluate the safety and tolerability of rebastinib when administered in combination with paclitaxel. Pharmacokinetic (PK) and pharmacodynamic (PD) samples will be collected at pre-specified time points.
The study consists of two parts (Part 1 and Part 2). In Part 1, patients were assigned to one of two pre-defined dose levels of rebastinib (50 or 100 mg BID) in combination with paclitaxel administered by intravenous (IV) infusion at 80 mg/m^2. Paclitaxel is to be administered by IV infusion at 80 mg/m^2 over approximately 60 minutes on Day 1, Day 8 and Day 15 of repeated 28-day cycles. Rebastinib is to be administered orally prior to the paclitaxel infusion.
Each arm was planned to enroll at least 12 evaluable patients. Additionally, if rebastinib at 100 mg BID was deemed unsafe, an additional arm dosing at 75 mg BID of rebastinib in combination with paclitaxel may be initiated. Up to 36 evaluable patients were dosed in Part 1. Safety was continuously monitored, and any arm may be terminated early if deemed unsafe by the Sponsor.
Safety and tolerability, PK and PD, and preliminary efficacy data obtained in Part 1 was used to determine the RP2D. Data for at least 12 evaluable patients through Cycle 1 must be available in an arm to declare the dose as the RP2D. Patients must receive ≥80% of planned doses of rebastinib and paclitaxel in Cycle 1 to be considered as evaluable. Enrollment of patients was paused for determination of the RP2D prior to initiation of Part 2. An RP2D was chosen by the Sponsor in consultation with the Investigators.

TIE2 = experiment: Pharmacodynamics: circulating Ang-2 levels (Part 1); assay type: in vivo, human; details: with exposure to higher doses of rebastinib in combination with paclitaxel; indicating TIE2 inhibition
Excerpt: as §3

[4] = Pharmacokinetics of rebastinib given with carboplatin; assay type: in vivo; details: time point 2; 50 and 100 mg BID with carboplatin
Protocol: as §2

[5] = test system: inflammatory breast cancer; experiment: Phase 1b/2 rebastinib + paclitaxel, Part 2 Cohort 2 (RECIST v1.1); assay type: in vivo, human
Excerpt: as §1

[6] = both Cycle 3, Day 1 and Cycle 5, Day 1
[7] = time point 1, rebastinib and carboplatin combination

Structure (SMILES): CNC(=O)c1cc(Oc2ccc(NC(=O)Nc3cc(C(C)(C)C)nn3-c3ccc4ncccc4c3)c(F)c2)ccn1 [rebastinib]
- Patients with stable disease ([1]; Cycle 3, Day 1): one
- Patients with partial response ([1]; Cycle 8, Day 1): one
- Patients with partial response [1, 6]: one
- Patients with stable disease [1, 6]: two
- Tolerability ([2]; time point 1, rebastinib 50 mg and 100 mg BID in combination with carboplatin AUC5): tolerated
- Tolerability ([2]; time point 1, rebastinib 100 mg BID in combination with carboplatin AUC6 (3 patients)): tolerated
- Muscular weakness [2, 7]: No muscular weakness
- Response in the dose escalation cohorts [2, 7]: No response
- Partial response (PR) ([2]; time point 2, 22 patients enrolled, rebastinib 50 or 100 mg BID + carboplatin AUC5 or AUC6, preliminary): 1
- Muscular weakness in the dose expansion cohort ([2]; time point 2, rebastinib 100 mg BID with carboplatin AUC5, RP2D adjusted to 50 mg BID): increased frequency
- CBR at 6 weeks ([2]; time point 2, rebastinib + carboplatin, preliminary): 52%
- Partial response, patients ([3]; Part 1, rebastinib 50 mg BID with weekly paclitaxel 80 mg/m^2): 5 patients
- Partial response, patients ([3]; Part 1, rebastinib 100 mg BID with weekly paclitaxel 80 mg/m^2): 3 patients
- Partial response, patients total ([3]; Part 1, rebastinib 50 and 100 mg BID with weekly paclitaxel 80 mg/m^2): 8 patients
- Tolerability ([3]; Part 1, rebastinib 50 and 100 mg BID with weekly paclitaxel 80 mg/m^2, patients with advanced tumors): generally well tolerated
- Muscular weakness ([3]; rebastinib 100 mg BID with weekly paclitaxel 80 mg/m^2, required dose reduction to 50 mg BID): high incidence
- Mean circulating Ang-2 levels (TIE2): increased
- Rebastinib exposure [4]: dose proportional
- Patients with partial response ([5]; Cycle 3, Day 1): two
- Patients with stable disease ([5]; Cycle 3, Day 1): one
- Patients with partial response ([5]; Cycle 3, Day 1, Cycle 5, Day 1, and Cycle 8, Day 1): one
- Patients with stable disease [5, 6]: one
